Like-named read-outs stand apart in the source and are kept apart here.
Target: T1, Syk catalytic domain (aa 356-635 with a C-terminal His-tag) (Homo sapiens, UniProt P43405)
T1 construct: His-tag (C); made in house
Experiment: In vitro Syk kinase activity measured by trFRET, Syk catalytic domain
Assay type: biochemical
In short: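 Kinase reaction: 0.14 nM His-tagged catalytic domain, 0.2 μM biotin-TYR1 peptide, 0.001 mM ATP in 50 mM MOPSO pH 6.5 with MgCl2, MnCl2, DTT, BSA, vanadate, ~60 min at rt, then EDTA quench. Phosphoproduct detected by trFRET (Eu anti-pTyr antibody/streptavidin-APC, 665 nm emission); IC50 from signal in linear range.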

[1] = Syk catalytic domain (aa 356-635), trFRET, 0.001 mM ATP

IC50 [1] [nM]	IC50 [nM]	SMILES
100 to 1000		COCCCNC(=O)c1cccc(-c2cc3c(ncc4cnn(C)c43)[nH]2)c1 [N.1.7]
100 to 1000		CCc1c(-c2ccc(C(C)(C)O)cc2)[nH]c2ncc3cnc(C)n3c12 [M.1.9]
100 to 1000		Cc1nc(-c2ccc(C(C)(C)O)cc2F)c2cnc3[nH]ccc3n12 [N.1.102]
100 to 1000		CS(=O)(=O)c1cccc(-c2cc3c(ncc4cnc(C(F)(F)F)n43)[nH]2)c1 [M.1.2]
	100 to 1000	COc1ccc(-c2nc(C)n3c2cnc2[nH]ccc23)cc1C [AC.1.37]
	100 to 1000	Cc1nc(-c2ccc(C3(CO)CC3)cc2)c2cnc3[nH]ccc3n12 [AC.1.36]
	< 100	COc1ccc(-c2nn(C)c3c2cnc2[nH]ccc23)cc1 [AU.1.1, 3-(4-methoxyphenyl)-1-methyl-1,6-dihydropyrazolo[3,4-d]pyrrolo[2,3-b]pyridine]
100 to 1000		Cn1ncc2cnc3[nH]c(-c4cccc(CC(=O)NCCN5CCOCC5)c4)cc3c21 [N.1.12]
< 100		Cn1ncc2cnc3[nH]c(-c4ccc(C(C)(C)O)cc4)cc3c21 [N.1.1]
100 to 1000		CC(C)(O)c1ccc(-c2nc(-c3cccnc3CO)n3c2cnc2[nH]ccc23)cc1 [D.2.4]
< 100		COc1ccc2c(c1)c(-c1cc3c(ncc4cnc(N5CCCC5)n43)[nH]1)cn2C [M.1.17]
	100 to 1000	NS(=O)(=O)c1ccc(-c2nc(C3CCCCC3)n3c2cnc2[nH]ccc23)cc1 [AC.3.15]
100 to 1000		CN(C)CCOc1ccc(-c2cc3c(ncc4cnn(C)c43)[nH]2)cc1 [N.2.3]
	100 to 1000	CC(=O)Nc1ccc(-c2nc(C3CCCCC3)n3c2cnc2[nH]ccc23)cc1 [AC.3.7]
	1000 to 10000	c1cnc(-c2nc(C3CCCCC3)n3c2cnc2[nH]ccc23)cn1 [AC.3.16]
	1000 to 10000	Cc1nc(C2=CCN(C(=O)OC(C)(C)C)CC2)c2cnc3[nH]ccc3n12 [AC.1.13]
	100 to 1000	CS(=O)(=O)c1ccc(-c2nc([C@H]3CC[C@H](N)CC3)n3c2cnc2[nH]ccc23)cc1 [P.3.1.11]
1000 to 10000		c1ccc(-c2nc(C3CCCCC3)n3c2cnc2[nH]ccc23)cc1 [Example 2, 1-Cyclohexyl-3-phenyl-6H-imidazo[1,5-a]pyrrolo[2,3-e]pyrazine]
< 100		COCCNC(=O)Cn1cc(-c2cc3c(ncc4cnn(C)c43)[nH]2)c2cc(OC)ccc21 [N.1.28]
1000 to 10000		CCCNC(=O)c1cccc(-c2[nH]c3ncc4cnn(C)c4c3c2CC)c1 [N.1.39]
	100 to 1000	CN1CCN(Cc2ccc(-c3nc(C4CCCCC4)n4c3cnc3[nH]ccc34)cc2)CC1 [AC.3.14]
< 100		CN(CC(C)(C)CO)C(=O)c1ccc2c(c1)c(-c1cc3c(ncc4cnn(C)c43)[nH]1)cn2C [J.1.8.5]
	100 to 1000	CC(=O)c1cccc(-c2nc(C3CCCCC3)n3c2cnc2[nH]ccc23)c1 [AC.3.4]
< 100		Cc1nc(-c2ccc(C(C)(C)O)cc2)c2cnc3[nH]cc(C#N)c3n12 [M.2.4]
100 to 1000		COc1ccc(-c2nc(C(C)C)n3c2cnc2[nH]ccc23)cc1 [N.1.91]
< 100		Cc1nc(-c2ccc(C3(O)CCN(C(=O)OC(C)(C)C)CC3)cc2)c2cnc3[nH]ccc3n12 [N.1.99]

IC50 [1] [nM]	IC50 [nM]	SMILES
	100 to 1000	CC(C)(O)c1ccc(-c2nc(CN3CCNCC3)n3c2cnc2[nH]ccc23)cc1 [P.3.1.7]
100 to 1000		Cn1ncc2cnc3[nH]c(-c4cccc(S(=O)(=O)NCCN5CCOCC5)c4)cc3c21 [N.1.41]
< 100		COc1ccc2c(c1)c(-c1cc3c(ncc4cnc(C5CCOCC5)n43)[nH]1)cn2C [M.1.10]
	< 100	CC(C)(O)c1ccc(-c2nc([C@H]3CCC[C@H](N)C3)n3c2cnc2[nH]ccc23)cc1 [P.3.1.9]
	100 to 1000	Cc1ncccc1-c1nc(-c2ccc(C(C)(C)O)cc2)c2cnc3[nH]ccc3n12 [AC.5.3]
	> 10000	C1=C(c2ncn3c2cnc2[nH]ccc23)CCNC1 [P.3.1.4, 3-(1,2,3,6-Tetrahydropyridin-4-yl)-6H-imidazo[1,5-a]pyrrolo[2,3-e]pyrazine]
	< 100	CC(C)(O)c1ccc(-c2nc(CC3CCNCC3)n3c2cnc2[nH]ccc23)cc1 [T.4.1.2]
< 100		CN(C)c1nc(-c2ccc(C(C)(C)O)cc2)c2cnc3[nH]ccc3n12 [N.1.59]
	100 to 1000	O=S(=O)(NCCO)c1cccc(-c2nc(C3CCCCC3)n3c2cnc2[nH]ccc23)c1 [AC.3.21]
< 100		COc1ccc2c(c1)c(-c1cc3c(ncc4cnc(C5CCCOC5)n43)[nH]1)cn2C (stereo not shown) [M.1, 7-(5-Methoxy-1-methyl-1H-indol-3-yl)-1-(tetrahydro-2H-pyran-3-yl)-6H-imidazo[1,5-a]pyrrolo[2,3-e]pyrazine]
< 100		COc1ccc2c(c1)c(-c1cc3c(ncc4cnc(CCN)n43)[nH]1)cn2C [T.1.1.4]
	100 to 1000	CCc1c(-c2ccc(C(C)(C)O)cc2)[nH]c2ncc3nncn3c12 [S.1.9]
< 100		COc1ccc2c(c1)c(-c1cc3c(ncc4cnn(C)c43)[nH]1)cn2CCO [N.2.12]
1000 to 10000		CN1CCN(CCNC(=O)Cc2cccc(-c3cc4c(ncc5cnn(C)c54)[nH]3)c2)CC1 [N.1, 2-(3-(1-Methyl-1,6-dihydropyrazolo[3,4-d]pyrrolo[2,3-b]pyridin-7-yl)phenyl)-N-(2-(4-methylpiperazin-1-yl)ethyl)acetamide]
< 100		COc1ccc2c(c1)c(-c1cc3c(ncc4cnc([C@@H]5CC[C@H](NS(=O)(=O)C6CC6)C5)n43)[nH]1)cn2C [K.1.1]
	< 100	OC1(c2ccc(-c3ncn4c3cnc3[nH]ccc34)cc2)CCNCC1 [P.3.1.6]
	100 to 1000	CC(=O)c1ccc(-c2nn(C)c3c2cnc2[nH]ccc23)cc1 [W.1.1, 1-(4-(1-Methyl-1,6-dihydropyrazolo[3,4-d]pyrrolo[2,3-b]pyridin-3-yl)phenyl)ethanone]
100 to 1000		CS(=O)(=O)c1ccc(-c2nc([C@H]3CCCNC3)n3c2cnc2[nH]ccc23)cc1 [N.1.61]
	100 to 1000	Cc1nc(-c2ccc(CN3CCOCC3)cc2)c2cnc3[nH]ccc3n12 [AH.1.1]
	100 to 1000	Cc1nc(-c2ccc(C3(O)COC3)cc2)c2cnc3[nH]ccc3n12 [AC.1.33]
	100 to 1000	CC(C)(N)CCc1nc(-c2ccc(C(C)(C)O)cc2)c2cnc3[nH]ccc3n12 [T.4.1.3]
1000 to 10000		COc1ccc(-c2nc(CNC3CCCCC3O)n3c2cnc2[nH]ccc23)cc1 (stereo not shown) [N.1.93]
	< 100	COc1ccc(-c2nc(C)n3c2cnc2[nH]ccc23)cc1OC [AC.1.41]
< 100		Cn1ncc2cnc3[nH]c(-c4ccc(C(C)(C)O)cc4)c(C#N)c3c21 [D.2.3]
< 100		Cn1cc(-c2cc3c(ncc4cnn(C)c43)[nH]2)c2cc(C(=O)NS(C)(=O)=O)ccc21 [Example 8, 1-Methyl-3-(1-methyl-1,6-dihydropyrazolo[3,4-d]pyrrolo[2,3-b]pyridin-7-yl)-N-(methylsulfonyl)-1H-indole-5-carboxamide]
< 100		CCCc1nc(-c2ccc(OC)cc2)c2cnc3[nH]ccc3n12 [N.1.92]

IC50 [1] [nM]	IC50 [nM]	SMILES
	1000 to 10000	CC(=O)N1CCC[C@H]1c1nc(-c2ccc(C(C)(C)O)cc2)c2cnc3[nH]ccc3n12 [AC.5.9]
100 to 1000		COC(=O)Cn1cc(-c2nc(C)n3c2cnc2[nH]ccc23)cn1 [Example 12, Methyl 2-(4-(1-methyl-6H-imidazo[1,5-a]pyrrolo[2,3-e]pyrazin-3-yl)-1H-pyrazol-1-yl)acetate]
100 to 1000		Cn1ncc2cnc3[nH]c(-c4ccncc4)cc3c21 [N.2.1]
1000 to 10000		CCc1c(-c2cn(C)c3ccc(OC)cc23)[nH]c2ncc3cnn(C)c3c12 [N.1.35]
< 100		Cn1cc(-c2cc3c(ncc4cnn(C)c43)[nH]2)c2cc(C(=O)NCC(C)(C)CO)ccc21 [J.2.2.2]
1000 to 10000		COc1ccc2c(c1)c(-c1cc3c4c(cnc3[nH]1)CCN4C)cn2C [N.1.22]
< 100		COc1ccc2c(c1)c(-c1cc3c(ncc4cnn(C)c43)[nH]1)cn2CC(O)CO (stereo not shown) [N.1.26]
< 100		CN1CCN(C(=O)CNC(=O)c2ccc3c(c2)c(-c2cc4c(ncc5cnn(C)c54)[nH]2)cn3C)CC1 [J.1.8.6]
100 to 1000		CCc1c(-c2ccc(OC)cc2)[nH]c2ncc3cnn(C)c3c12 [N.1.43]
1000 to 10000		Cn1ncc2cnc3[nH]c(-c4cnc5n4CCC5)cc3c21 [N.1.27]
< 100		COCCN(C)c1cnc2cnc3[nH]c(-c4cn(C)c5ccc(OC)cc45)cc3n12 [M.1.21]
< 100		COc1ccc(-c2nc(C)n3c2cnc2[nH]ccc23)cc1 [N.1.54]
100 to 1000		CC(C)(O)c1ccc(-c2ncn3c2cnc2[nH]cc(CO)c23)cc1 [N.1.110]
	100 to 1000	CN(C)CCNC(=O)c1ccc(-c2nc(C3CCCCC3)n3c2cnc2[nH]ccc23)cc1 [AC.3.26]
1000 to 10000		COc1ccc2c(c1)c(-c1nc(C3CCCCC3)n3c1cnc1[nH]ccc13)cn2C [N.1.48]
100 to 1000		CC(C)(O)c1ccc(-c2nc(CN3CCCNCC3)n3c2cnc2[nH]ccc23)cc1 [N.1.97]
	100 to 1000	Cc1cnc2cnc3[nH]c(-c4ccc(C(C)(C)O)cc4)cc3n12 [S.1.10]
< 100		Cn1cc(-c2cc3c(ncc4cnn(C)c43)[nH]2)c2cc(OCCN3CCOCC3)ccc21 [N.1.112]
< 100		CC(=O)c1ccc(-c2cc3c(ncc4cnc(C(=O)N5CCCC5)n43)[nH]2)cc1 [J.1.5.1]
	< 100	CNS(=O)(=O)c1ccc(-c2nc(C)n3c2cnc2[nH]ccc23)cc1 [AC.1.9]
< 100		COc1ccc2c(c1)c(-c1cc3c(ncc4cnc([C@@H]5CCNC5)n43)[nH]1)cn2C [T.1.1.2, (R)-7-(5-Methoxy-1-methyl-1H-indol-3-yl)-1-(pyrrolidin-3-yl)-6H-imidazo[1,5-a]pyrrolo[2,3-e]pyrazine diacetate]
< 100		CC(=O)NCc1cccc(-c2cc3c(ncc4cnn(C)c43)[nH]2)c1 [N.1.3]
100 to 1000		COc1ccc2c(c1)c(-c1nc(C)n3c1cnc1[nH]ccc13)cn2C [N.1.55]
	100 to 1000	OCc1ccc(-c2ncn3c2cnc2[nH]ccc23)cc1 [AC.4.2]
